Measurements taken from patent publication US9655884B2, “Antiparasitic use of isoxazoline compounds” (Intervet Inc., priority 2013, dated 2017).

System: adult fleas (C. felis)
Assay: In vitro membrane feeding exposure to assess flea reproduction
Set-up: species or system Ctenocephalides felis
Details: for Effect on hatching of larvae: flea groups able to lay eggs, all concentrations
Procedure: A membrane feeding method [Wade S E, Georgi J R. Survival and reproduction of artificially fed cat fleas, Ctenocephalides felis Bouché (Siphonaptera: Pulicidae). J Med Entomol 1988, 25: 186-190.] was modified to assess the impact of fluralaner exposure on flea reproduction. Defibrinated sheep blood was prepared in a series of dilutions with fluralaner to obtain concentrations between 50.0 and 0.09 ng/mL. These test solutions were prepared twice and each preparation was tested in duplicate resulting in a total of 4 replicates per concentration, along with a fluralaner negative solvent control (a solvent concentration equivalent to that of the highest concentrated fluralaner test solution) and an untreated control.
Unfed adult fleas (C. felis; 20 males and 20 females) were placed into a plastic unit that was then closed with a gauze lid. A grid inside the plastic unit divided the unit into 2 chambers, an upper chamber for flea feeding and a lower chamber for egg collection. Test or control blood preparations (2 ml) were placed in an artificial membrane closed glass tube that was then placed on the plastic unit as the food source. Feeding units were incubated (38° C. and 60% RH) for 10 days. Test and negative control blood preparations were freshly prepared and exchanged (on days 1, 3, 5, and 8) to permit continuous flea feeding. Fleas were transferred into fresh plastic units on Days 5 and 8 to facilitate egg collection. Collected eggs were mixed with flea nourishment medium and incubated (28° C. and 80% RH) in darkness for 22 (±3) days to enable flea development. Parameters recorded were flea survival, oviposition control, egg hatchability, pupa control, flea-emergence control and reproduction inhibition.

[1] = eggs of parent fleas fed 0.09 ng/mL in blood, exposure day 9
[2] = eggs of parent fleas fed 0.09 ng/mL in blood, exposure day 10
[3] = eggs of parent fleas fed 0.19 ng/mL in blood, exposure day 3
[4] = eggs of parent fleas fed 0.19 ng/mL in blood, exposure day 4
[5] = eggs of parent fleas fed 0.19 ng/mL in blood, exposure day 5
[6] = eggs of parent fleas fed 0.19 ng/mL in blood, exposure day 8
[7] = eggs of parent fleas fed 0.19 ng/mL in blood, exposure day 9
[8] = eggs of parent fleas fed 0.19 ng/mL in blood, exposure day 10
[9] = eggs of parent fleas fed 0.39 ng/mL in blood, exposure day 3
[10] = eggs of parent fleas fed 0.39 ng/mL in blood, exposure day 4
[11] = eggs of parent fleas fed 0.39 ng/mL in blood, exposure day 5
[12] = eggs of parent fleas fed 0.39 ng/mL in blood, exposure day 8
[13] = eggs of parent fleas fed 0.39 ng/mL in blood, exposure day 9
[14] = eggs of parent fleas fed 0.39 ng/mL in blood, exposure day 10
[15] = eggs of parent fleas fed 0.78 ng/mL in blood, exposure day 3
[16] = eggs of parent fleas fed 0.78 ng/mL in blood, exposure day 4
[17] = eggs of parent fleas fed 0.78 ng/mL in blood, exposure day 5
[18] = eggs of parent fleas fed 0.78 ng/mL in blood, exposure day 8
[19] = eggs of parent fleas fed 0.78 ng/mL in blood, exposure day 9
[20] = eggs of parent fleas fed 0.78 ng/mL in blood, exposure day 10
[21] = eggs of parent fleas fed 1.56 ng/mL in blood, exposure day 3
[22] = eggs of parent fleas fed 1.56 ng/mL in blood, exposure day 4
[23] = eggs of parent fleas fed 1.56 ng/mL in blood, exposure day 5
[24] = eggs of parent fleas fed 1.56 ng/mL in blood, exposure day 8
[25] = eggs of parent fleas fed 1.56 ng/mL in blood, exposure day 9
[26] = eggs of parent fleas fed 1.56 ng/mL in blood, exposure day 10
[27] = eggs of parent fleas fed 3.13 ng/mL in blood, exposure day 3
[28] = eggs of parent fleas fed 3.13 ng/mL in blood, exposure day 4
[29] = eggs of parent fleas fed 3.13 ng/mL in blood, exposure day 5
[30] = eggs of parent fleas fed 3.13 ng/mL in blood, exposure day 8
[31] = eggs of parent fleas fed 3.13 ng/mL in blood, exposure day 9
[32] = eggs of parent fleas fed 3.13 ng/mL in blood, exposure day 10
[33] = eggs of parent fleas fed 6.25 ng/mL in blood, exposure day 3
[34] = eggs of parent fleas fed 6.25 ng/mL in blood, exposure day 4
[35] = eggs of parent fleas fed 6.25 ng/mL in blood, exposure day 5
[36] = eggs of parent fleas fed 6.25 ng/mL in blood, exposure day 8
[37] = eggs of parent fleas fed 6.25 ng/mL in blood, exposure day 9
[38] = eggs of parent fleas fed 6.25 ng/mL in blood, exposure day 10
[39] = eggs of parent fleas fed 12.5 ng/mL in blood, exposure day 3
[40] = eggs of parent fleas fed 12.5 ng/mL in blood, exposure day 8
[41] = eggs of parent fleas fed 12.5 ng/mL in blood, exposure day 9

Cc1cc(C2=NOC(c3cc(Cl)cc(Cl)c3)(C(F)(F)F)C2)ccc1C(=O)NCC(=O)NCC(F)(F)F (centres unmarked) [fluralaner, 4-[5-(3,5-Dichlorophenyl)-5-trifluoromethyl-4,5-dihydroisoxazol-3-yl]-2-methyl-N-[(2,2,2-trifluoro-ethylcarbamoyl)-methyl]-benzamide]
Pupal Development Control (eggs of parent fleas fed 0.09 ng/mL in blood, exposure day 8): 0% | Larval Emergence [1]: yes | Pupal Development Control [1]: 5.9% | Larval Emergence [2]: yes | Pupal Development Control [2]: 2.9% | Pupal Development Control (eggs of parent fleas fed 0.19 ng/mL in blood, arithmetic mean of exposure days): 3.1% | Larval Emergence [3]: yes | Pupal Development Control [3]: 8.8% | Larval Emergence [4]: yes | Pupal Development Control [4]: 0.2% | Larval Emergence [5]: yes | Pupal Development Control [5]: 6.8% | Larval Emergence [6]: yes | Pupal Development Control [6]: 0% | Larval Emergence [7]: yes | Pupal Development Control [7]: 2.7% | Larval Emergence [8]: yes | Pupal Development Control [8]: 0% | Pupal Development Control (eggs of parent fleas fed 0.39 ng/mL in blood, arithmetic mean of exposure days): 3.6% | Larval Emergence [9]: yes | Pupal Development Control [9]: 9.8% | Larval Emergence [10]: yes | Pupal Development Control [10]: 0% | Larval Emergence [11]: yes | Pupal Development Control [11]: 1.5% | Larval Emergence [12]: yes | Pupal Development Control [12]: 3.3% | Larval Emergence [13]: yes | Pupal Development Control [13]: 6.3% | Larval Emergence [14]: yes | Pupal Development Control [14]: 0.8% | Pupal Development Control (eggs of parent fleas fed 0.78 ng/mL in blood, arithmetic mean of exposure days): 12.1% | Larval Emergence [15]: yes | Pupal Development Control [15]: 7.5% | Larval Emergence [16]: yes | Pupal Development Control [16]: 11.4% | Larval Emergence [17]: yes | Pupal Development Control [17]: 16.7% | Larval Emergence [18]: yes | Pupal Development Control [18]: 10.8% | Larval Emergence [19]: yes | Pupal Development Control [19]: 11.9% | Larval Emergence [20]: yes | Pupal Development Control [20]: 14.5% | Pupal Development Control (eggs of parent fleas fed 1.56 ng/mL in blood, arithmetic mean of exposure days): 35.1% | Larval Emergence [21]: yes | Pupal Development Control [21]: 35.3% | Larval Emergence [22]: yes | Pupal Development Control [22]: 36.3% | Larval Emergence [23]: yes | Pupal Development Control [23]: 34.6% | Larval Emergence [24]: yes | Pupal Development Control [24]: 35.5% | Larval Emergence [25]: yes | Pupal Development Control [25]: 41.6% | Larval Emergence [26]: yes | Pupal Development Control [26]: 27.2% | Pupal Development Control (eggs of parent fleas fed 3.13 ng/mL in blood, arithmetic mean of exposure days): 64.5% | Larval Emergence [27]: yes | Pupal Development Control [27]: 66.3% | Larval Emergence [28]: yes | Pupal Development Control [28]: 68.9% | Larval Emergence [29]: yes | Pupal Development Control [29]: 61.7% | Larval Emergence [30]: yes | Pupal Development Control [30]: 70.3% | Larval Emergence [31]: yes | Pupal Development Control [31]: 62.1% | Larval Emergence [32]: yes | Pupal Development Control [32]: 57.4% | Pupal Development Control (eggs of parent fleas fed 6.25 ng/mL in blood, arithmetic mean of exposure days): 88.7% | Larval Emergence [33]: yes | Pupal Development Control [33]: 90.2% | Larval Emergence [34]: yes | Pupal Development Control [34]: 92.4% | Larval Emergence [35]: yes | Pupal Development Control [35]: 87.3% | Larval Emergence [36]: yes | Pupal Development Control [36]: 86.4% | Larval Emergence [37]: yes | Pupal Development Control [37]: 89.9% | Larval Emergence [38]: yes | Pupal Development Control [38]: 86.0% | Pupal Development Control (eggs of parent fleas fed 12.5 ng/mL in blood, arithmetic mean of exposure days): 85.1% | Larval Emergence [39]: no | Pupal Development Control [39]: 100% | Larval Emergence [40]: yes | Pupal Development Control [40]: 55.2% | Larval Emergence [41]: yes | Pupal Development Control [41]: 100% | Effect on hatching of larvae: does not affect the hatching of larvae | Effect on hatching of larvae (listed as Fluralaner): did not affect the hatching of larvae | Adult Flea Emergence Control (parent fleas fed 0.09 ng/mL in blood, arithmetic mean of exposure days): 0.3% | Adult Flea Emergence Control (parent fleas fed 0.09 ng/mL in blood, exposure day 3): 1.1% | Adult Flea Emergence Control (parent fleas fed 0.09 ng/mL in blood, exposure day 4): 0.5% | Adult Flea Emergence Control (parent fleas fed 0.09 ng/mL in blood, exposure day 5): 0% | Adult Flea Emergence Control (parent fleas fed 0.09 ng/mL in blood, exposure day 8): 0% | Adult Flea Emergence Control (parent fleas fed 0.09 ng/mL in blood, exposure day 9): 0% | Adult Flea Emergence Control (parent fleas fed 0.09 ng/mL in blood, exposure day 10): 0% | Adult Flea Emergence Control (parent fleas fed 0.19 ng/mL in blood, arithmetic mean of exposure days): 2.2% | Adult Flea Emergence Control (parent fleas fed 0.19 ng/mL in blood, exposure day 3): 4.6% | Adult Flea Emergence Control (parent fleas fed 0.19 ng/mL in blood, exposure day 4): 0% | Adult Flea Emergence Control (parent fleas fed 0.19 ng/mL in blood, exposure day 5): 1.3% | Adult Flea Emergence Control (parent fleas fed 0.19 ng/mL in blood, exposure day 8): 0.8% | Adult Flea Emergence Control (parent fleas fed 0.19 ng/mL in blood, exposure day 9): 6.7% | Adult Flea Emergence Control (parent fleas fed 0.19 ng/mL in blood, exposure day 10): 0% | Adult Flea Emergence Control (parent fleas fed 0.39 ng/mL in blood, arithmetic mean of exposure days): 1.1% | Adult Flea Emergence Control (parent fleas fed 0.39 ng/mL in blood, exposure day 3): 0% | Adult Flea Emergence Control (parent fleas fed 0.39 ng/mL in blood, exposure day 4): 0% | Adult Flea Emergence Control (parent fleas fed 0.39 ng/mL in blood, exposure day 5): 0% | Adult Flea Emergence Control (parent fleas fed 0.39 ng/mL in blood, exposure day 8): 1.6% | Adult Flea Emergence Control (parent fleas fed 0.39 ng/mL in blood, exposure day 9): 5.2% | Adult Flea Emergence Control (parent fleas fed 0.39 ng/mL in blood, exposure day 10): 0% | Adult Flea Emergence Control (parent fleas fed 0.78 ng/mL in blood, arithmetic mean of exposure days): 1.5% | Adult Flea Emergence Control (parent fleas fed 0.78 ng/mL in blood, exposure day 3): 3.8% | Adult Flea Emergence Control (parent fleas fed 0.78 ng/mL in blood, exposure day 4): 0% | Adult Flea Emergence Control (parent fleas fed 0.78 ng/mL in blood, exposure day 5): 0% | Adult Flea Emergence Control (parent fleas fed 0.78 ng/mL in blood, exposure day 8): 3.1% | Adult Flea Emergence Control (parent fleas fed 0.78 ng/mL in blood, exposure day 9): 1.8% | Adult Flea Emergence Control (parent fleas fed 0.78 ng/mL in blood, exposure day 10): 0% | Adult Flea Emergence Control (parent fleas fed 1.56 ng/mL in blood, arithmetic mean of exposure days): 1.7% | Adult Flea Emergence Control (parent fleas fed 1.56 ng/mL in blood, exposure day 3): 0% | Adult Flea Emergence Control (parent fleas fed 1.56 ng/mL in blood, exposure day 4): 0% | Adult Flea Emergence Control (parent fleas fed 1.56 ng/mL in blood, exposure day 5): 0% | Adult Flea Emergence Control (parent fleas fed 1.56 ng/mL in blood, exposure day 8): 10.2% | Adult Flea Emergence Control (parent fleas fed 1.56 ng/mL in blood, exposure day 9): 0% | Adult Flea Emergence Control (parent fleas fed 1.56 ng/mL in blood, exposure day 10): 0% | Adult Flea Emergence Control (parent fleas fed 3.13 ng/mL in blood, arithmetic mean of exposure days): 5.9% | Adult Flea Emergence Control (parent fleas fed 3.13 ng/mL in blood, exposure day 3): 4.4% | Adult Flea Emergence Control (parent fleas fed 3.13 ng/mL in blood, exposure day 4): 11.9% | Adult Flea Emergence Control (parent fleas fed 3.13 ng/mL in blood, exposure day 5): 3.2% | Adult Flea Emergence Control (parent fleas fed 3.13 ng/mL in blood, exposure day 8): 8.6% | Adult Flea Emergence Control (parent fleas fed 3.13 ng/mL in blood, exposure day 9): 7.5% | Adult Flea Emergence Control (parent fleas fed 3.13 ng/mL in blood, exposure day 10): 0% | Adult Flea Emergence Control (parent fleas fed 6.25 ng/mL in blood, arithmetic mean of exposure days): 11.5% | Adult Flea Emergence Control (parent fleas fed 6.25 ng/mL in blood, exposure day 3): 29.2% | Adult Flea Emergence Control (parent fleas fed 6.25 ng/mL in blood, exposure day 4): 0% | Adult Flea Emergence Control (parent fleas fed 6.25 ng/mL in blood, exposure day 5): 0% | Adult Flea Emergence Control (parent fleas fed 6.25 ng/mL in blood, exposure day 8): 9.2% | Adult Flea Emergence Control (parent fleas fed 6.25 ng/mL in blood, exposure day 9): 30.8% | Adult Flea Emergence Control (parent fleas fed 6.25 ng/mL in blood, exposure day 10): 0% | Adult Flea Emergence Control (parent fleas fed 12.5 ng/mL in blood, arithmetic mean of exposure days): 100% | Adult Flea Emergence Control (parent fleas fed 12.5 ng/mL in blood, exposure day 8): 100%
